Experimental data from US12570641B2, “Solid forms of a CDK4 inhibitor” (Pfizer Inc., priority 2020, dated 2026).

Experiments:
Format in all cases: physicochemical
[1] = Accelerated solid state chemical/humidity stability by UPLC; settings: for % impurity RRT 0.89 / % impurity RRT 1.31: UPLC
Protocol: Accelerated solid state chemical stability and photostability of PF-07220060 monohydrate (Form 2) was investigated. Solid state chemical/humidity stability of PF-07220060 monohydrate (Form 2) was evaluated by UPLC (ultra performance liquid chromatography) analysis after storage at 70° C./5% RH and 70° C./75% RH for one week, and at 40° C./5% RH and 40° C./75% RH for 6 weeks. The percentage of identified impurity peaks at the indicated RRT (relative retention time) values were determined under the challenge conditions versus a control sample stored at ambient temperature. RRT is calculated by dividing the retention time (RT) of the impurity by the RT of Form 2. Data at 70° C./5% RH and 70° C./75% RH for one week are provided in Table 14 and Table 15, respectively.

[2] = Solid-state photostability (2x ICH light exposure)
Protocol: Solid-state photostability of PF-07220060 monohydrate (Form 2) was evaluated after light exposure equivalent to 2× International Conference on Harmonisation (ICH) guidelines.

[3] = Moisture sorption (hygroscopicity), water sorption and desorption
Protocol: Water sorption and desorption studies were conducted on an automated vapor sorption analyzer (TA instruments Q5000 SA). The microbalance was calibrated using a 100 mg standard weight. The relative humidity (RH) sensor was calibrated at 5.0, 11.3, 32.8, 52.8, 75.3, and 84.3% RH (25° C.) using saturated salt solutions. Approximately 10-20 mg of the powder sample was placed in the quartz sample holder and dried at 3% RH at 60° C. The attainment of equilibrium was assumed when the weight change of the sample was <0.001 wt % in 5 min or by a maximum equilibration time of 300 minutes. […] Again, the attainment of equilibrium was assumed when the weight change of the sample was <0.001 wt % in 5 min or by a maximum equilibration time of 300 minutes. The weight gain at 60% RH is based on the weight after the initial drying step.
Water sorption and desorption studies of PF-07220060 monohydrate (Form 2), prepared as described in Example 2, were conducted according to General Method 6.
Water sorption and desorption studies of PF-07220060 hydrate (Form 1), prepared as described in Example 5B, were conducted according to General Method 6.
Comparative hygroscopicity experiments were performed using moisture sorption analysis according to General Method 6. PF-07220060 Forms 1, 2, 6, and 8 were evaluated using moisture sorption at 25° C., 60% RH. A form change at the completion of the run was not detected for any of the forms by PXRD.

[4] = Competitive slurry experiments in 2-propanol/1% water; settings: based on the competition slurry experiments
Protocol: Competitive slurry experiments were performed between Form 1 and Form 2 (Entry 1), and between Form 6 and Form 2 (Entry 2), in 2-propanol/1% water. Entry 1: […] The solids were collected with vacuum filtration and analyzed with PXRD. PXRD data was consistent with PF-07220060 monohydrate (Form 2). Entry 2: […] The solids were collected with vacuum filtration and analyzed with PXRD. PXRD data was consistent with PF-07220060 monohydrate (Form 2).

[5] = Thermal stability by Differential Scanning Calorimetry (DSC)
Protocol: Modulated Differential scanning calorimetry (DSC) measurements were performed with Discovery DSC (TA instruments) equipped with a refrigerated cooling accessory. All the experiments were performed in standard/Tzero aluminum pans. The cell constant was determined using indium and temperature calibration was performed using indium and tin as standards. All the measurements were done under continuous dry nitrogen purge (50 mL/min). Approximately 1-5 mg of solid sample was weighed into a Tzero aluminum pan, sealed non-hermetically and heated from −40° C. to 220° C. at 10° C./min heating rate. The experimental data were analyzed using commercially available software (TA Universal Analysis 2000/Trios software, TA Instruments).
(§1) Thermal stability data were obtained through thermogravimetric analysis (TGA) according to General Method 4, and Differential Scanning Calorimetry (DSC) scan according to General Method 5A.

[6] = Thermal stability by thermogravimetric analysis (TGA); settings: listed as Form 2 (monohydrate), monohydrate
Protocol: Thermogravimetric analysis was conducted using a Discovery TGA (TA instruments) thermogravimetric analyzer. Samples of approximately 10 mg were weighed into aluminum pans and heated from ambient ([…]) to 250° C. at 10° C./minute heating rate under nitrogen purge (10 mL/min for both sample chamber and balance).
as §1

[7] = control sample stored at ambient temperature
[8] = stressed samples: 70° C./75% RH and 70° C./5% RH for one week, 40° C./75% RH and 40° C./5% RH for 6 weeks
[9] = UV/Fluor, 2x ICH light exposure

## CC(C)n1c(C(C)(C)O)nc2c(F)cc(-c3nc(N[C@@H]4CCOC[C@H]4O)ncc3Cl)cc21 [Form 2, 1,5-anhydro-3-({5-chloro-4-[4-fluoro-2-(2-hydroxypropan-2-yl)-1-(propan-2-yl)-1H-benzimidazol-6-yl]pyrimidin-2-yl}amino)-2,3-dideoxy-D-threo-pentitol monohydrate]
[1]; 70° C./5% RH (one week)
  % impurity RRT 0.89: 0.57%
  % impurity RRT 1.31: 0.99%
[1]; 70° C./75% RH (one week)
  % impurity RRT 0.89: 0.58%
  % impurity RRT 1.31: 1.00%
[1]; [7]
  % impurity RRT 0.89: 0.57%
  % impurity RRT 1.31: 1.00%
[1]; [8]
  change in appearance compared to the control sample: No significant change in appearance
  growth of individual impurities: ≤ 0.2%
  total impurities: ≤ 2.0%
[2]; 2×CH condition
  solid form change by PXRD: no form change
[2]; 2×CH photostability sample
  change in appearance compared to the dark control sample: No significant change in appearance
[2]; 2×CH photostability samples
  growth of individual impurities: ≤ 0.2%
  total impurities: ≤ 2.0%
[2]; Dark control (wrapped in foil)
  % impurity RRT 0.74: NMT = 0.05%
  % impurity RRT 0.87: 0.06%
  % impurity RRT 1.02: NMT = 0.05%
  % impurity RRT 1.33: 0.08%
[2]; [9]
  % impurity RRT 0.74: 0.11%
  % impurity RRT 0.87: 0.06%
  % impurity RRT 1.02: 0.07%
  % impurity RRT 1.33: 0.07%
[3]; 25° C., 60% RH
  form change at the completion of the moisture sorption run by PXRD: not detected
[3]; 25 °C, RH 0%, listed as PF-07220060 monohydrate (Form 2), monohydrate
  Weight gain (%): 0.00%
[3]; 25 °C, RH 10%, desorption, listed as PF-07220060 monohydrate (Form 2), monohydrate
  Weight gain (%): 0.54%
[3]; 25 °C, RH 10%, sorption, listed as PF-07220060 monohydrate (Form 2), monohydrate
  Weight gain (%): 0.45%
[3]; 25 °C, RH 20%, desorption, listed as PF-07220060 monohydrate (Form 2), monohydrate
  Weight gain (%): 0.55%
[3]; 25 °C, RH 20%, sorption, listed as PF-07220060 monohydrate (Form 2), monohydrate
  Weight gain (%): 0.49%
[3]; 25 °C, RH 30%, desorption, listed as PF-07220060 monohydrate (Form 2), monohydrate
  Weight gain (%): 0.56%
[3]; 25 °C, RH 30%, sorption, listed as PF-07220060 monohydrate (Form 2), monohydrate
  Weight gain (%): 0.51%
[3]; 25 °C, RH 40%, desorption, listed as PF-07220060 monohydrate (Form 2), monohydrate
  Weight gain (%): 0.57%
[3]; 25 °C, RH 40%, sorption, listed as PF-07220060 monohydrate (Form 2), monohydrate
  Weight gain (%): 0.52%
[3]; 25 °C, RH 50%, desorption, listed as PF-07220060 monohydrate (Form 2), monohydrate
  Weight gain (%): 0.58%
[3]; 25 °C, RH 50%, sorption, listed as PF-07220060 monohydrate (Form 2), monohydrate
  Weight gain (%): 0.54%
[3]; 25 °C, RH 60%, desorption, listed as PF-07220060 monohydrate (Form 2), monohydrate
  Weight gain (%): 0.60%
[3]; 25 °C, RH 60%, sorption, listed as PF-07220060 monohydrate (Form 2), monohydrate
  Weight gain (%): 0.56%
[3]; 25 °C, RH 70%, desorption, listed as PF-07220060 monohydrate (Form 2), monohydrate
  Weight gain (%): 0.60%
[3]; 25 °C, RH 70%, sorption, listed as PF-07220060 monohydrate (Form 2), monohydrate
  Weight gain (%): 0.57%
[3]; 25 °C, RH 80%, desorption, listed as PF-07220060 monohydrate (Form 2), monohydrate
  Weight gain (%): 0.61%
[3]; 25 °C, RH 80%, sorption, listed as PF-07220060 monohydrate (Form 2), monohydrate
  Weight gain (%): 0.59%
[3]; 25 °C, RH 90%, listed as PF-07220060 monohydrate (Form 2), monohydrate
  Weight gain (%): 0.62%
[3]; 60 °C, RH 0% (initial drying step)
  Weight gain (%): 0.00%
[3]; comparative summary of Forms 1, 2, 6 and 8, monohydrate
  Weight Gain (%) at 25° C., 60% RH: <1%
[3]; moisture sorption at 25° C., 60% RH
  hygroscopicity relative to Form 8 and Form 1: reduced hygroscopicity
[4]
  relative humidity above which the form is thermodynamically stable: above 15 % RH
[5]; TGA and DSC
  thermal stability relative to Form 1 and Form 8: improved thermal stability
[5]; listed as Form 2 (monohydrate), monohydrate
  Thermal stability via DSC (° C.): 50 °C
[6]
  Thermal stability via TGA (° C.): 60 °C
